Values joined by “and” are separate entries in the source; they are usually repeats but may differ in a detail not shown here. Equal entries are not always repeated.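 The compound was tested at five concentrations on cells cultured in 96-well plates, with a 48-hour exposure period. GI50 marks 50% less growth.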 Active and inactive are the calls of the source. Cut-off read from the data, not from the text of the source: active = GI50 up to about 1.1 µM and inactive = higher.
Legend:
Assay in all cases: NCI anticancer screen, dose series, 48 h
MCF7 = system: MCF7
SW-620 = system: SW-620
NCI-H226 = system: NCI-H226
MOLT-4 = system: MOLT-4
SF-539 = system: SF-539
DU-145 = system: DU-145
PC-3 = system: PC-3
HOP-62 = system: HOP-62
NCI-H522 = system: NCI-H522
OVCAR-5 = system: OVCAR-5
Hs-578T = system: Hs-578T
SK-MEL-5 = system: SK-MEL-5
NCI-H460 = system: NCI-H460
BT-549 = system: BT-549
786-0 = system: 786-0

Measured: GI50

N#Cc1c(OCCF)c2ccccc2n2c1nc1ccccc12
inactive: MCF7 16.6 µM | SW-620 > 100 µM | NCI-H226 63.5 µM | MOLT-4 27.8 µM | SF-539 16.9 µM | DU-145 79.8 µM | PC-3 59.2 µM | HOP-62 29.9 µM | NCI-H522 19.6 µM | OVCAR-5 > 100 µM | Hs-578T 17.3 µM | SK-MEL-5 49.5 µM | NCI-H460 21.7 µM

COc1nc(C#CCC(C)O)nc(OC)n1 (configuration not stated)
inactive: MCF7 13.1 µM | SW-620 23.1 µM | MOLT-4 33.2 µM | BT-549 18.4 µM | SF-539 26 µM | DU-145 22.9 µM | PC-3 22.6 µM | HOP-62 4.89 µM | NCI-H522 17.7 µM | OVCAR-5 19.1 µM | Hs-578T 25.7 µM | SK-MEL-5 18.8 µM | NCI-H460 39.4 µM

C1=N\CCOCC/N=C\c2ccc(cc2)OCc2cccc(n2)COc2ccc/1cc2
inactive: MCF7 85.5 µM | SW-620 > 100 µM | 786-0 > 100 µM | NCI-H226 57.8 µM | MOLT-4 > 100 µM | BT-549 > 100 µM | SF-539 > 100 µM | DU-145 > 100 µM | PC-3 > 100 µM | HOP-62 > 100 µM | NCI-H522 > 100 µM | OVCAR-5 > 100 µM | Hs-578T > 100 µM | NCI-H460 > 100 µM

COc1ccc(NC(=O)CC(=O)N2N=C(N3c4ccccc4Sc4ccccc43)CC2c2ccccc2)cc1 (configuration not stated)
inactive: MCF7 > 100 µM | SW-620 > 100 µM | 786-0 > 100 µM | NCI-H226 > 100 µM | MOLT-4 > 100 µM | BT-549 > 100 µM | SF-539 > 100 µM | DU-145 > 100 µM | PC-3 > 100 µM | HOP-62 > 100 µM | NCI-H522 > 100 µM | OVCAR-5 > 100 µM | Hs-578T 39.7 µM | SK-MEL-5 > 100 µM | NCI-H460 > 100 µM

Oc1ccc2ccccc2c1/N=N/c1ccccc1
inactive: MCF7 > 100 µM | SW-620 > 100 µM | NCI-H226 73.3 µM | MOLT-4 > 100 µM | BT-549 > 100 µM | SF-539 > 100 µM | DU-145 > 100 µM | PC-3 > 87.9 µM | HOP-62 33.5 µM and > 60 µM | NCI-H522 > 100 µM and > 75.3 µM | OVCAR-5 > 100 µM | Hs-578T > 57.3 µM and 35.4 µM | SK-MEL-5 > 100 µM | NCI-H460 > 100 µM

Cc1cc(C)nc(NS(=O)(=O)c2ccc(NNC(=O)c3cccc4c(=O)c5ccccc5[nH]c34)cc2)n1
inactive: MCF7 > 100 µM | SW-620 83.8 µM | 786-0 > 100 µM | NCI-H226 51.1 µM | MOLT-4 49.8 µM | BT-549 53.5 µM | SF-539 > 100 µM | DU-145 > 100 µM | PC-3 38.4 µM | HOP-62 71.8 µM | NCI-H522 33.6 µM | OVCAR-5 21.5 µM | Hs-578T 61.7 µM | SK-MEL-5 52.1 µM | NCI-H460 67.6 µM

COCCCNc1nc(N)c(C#N)c(C#N)c1C#N
inactive: MCF7 > 10 µM | SW-620 > 10 µM | NCI-H226 > 10 µM | MOLT-4 > 10 µM | SF-539 > 10 µM | DU-145 > 10 µM | PC-3 > 10 µM | HOP-62 > 10 µM | NCI-H522 > 10 µM | OVCAR-5 > 10 µM | Hs-578T > 10 µM | SK-MEL-5 > 10 µM | NCI-H460 > 10 µM
